Here are results for 18 molecules from patent US11236087B2, “Highly active pyrazolo-piperidine substituted indole-2-carboxamides active against the hepatitis B virus (HBV)” (AiCuris GmbH & Co. KG, priority 2017, dated 2022).

Data set [1] is described as follows: Cell viability assay (AlamarBlue) in HepAD38 cells. The note with it: human. In general terms: The colour change of resazurin is a common sign of viable cells or microbes.
For a further data set, the system named is HBV. Kind of data set: Determination of HBV DNA from the supernatants of HepAD38 cells (anti-HBV activity). Type of data set: cell-based, hepatitis B virus. The note with it: Hepatitis B virus, 144 h; HBV DNA in HepAD38 supernatant, day 6, qPCR; read-out: Cell Activity (EC50). A digest of the protocol:
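HepAD38 cells, tetracycline withdrawn to induce HBV, treated with serial half-log compound dilutions; on day 6 HBV DNA purified from filtered supernatant and quantified by real-time PCR against HBV plasmid standards; EC50 from relative copy numbers by non-linear regression, three experiments in triplicate.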
For orientation: In qPCR the cycle at which signal appears reflects the starting amount.

The target in the next data set is T1, HBV core protein (UniProt P03146).
T1 construct: fused on or other part: BODIPY-FL maleimide label on the C-terminal Cys150
Kind of data set: Biochemical capsid assembly assay (fluorescence quenching). The arrangement: species or system hepatitis B virus. The note with it: read-out: Assembly Activity (IC50); BODIPY-FL labelled core protein, 300 μM NaCl, read 6 min after start. How it is done: Biochemical Capsid Assembly Assay
The screening for assembly effector activity was done based on a fluorescence quenching assay published by Zlotnick et al. (2007). The C-terminal truncated core protein containing 149 amino acids of the N-terminal assembly domain fused to a unique cysteine residue at position 150 and was expressed in E. coli using the pET expression system (Merck Chemicals, Darmstadt). Purification of core dimer protein was performed using a sequence of size exclusion chromatography steps. In brief, the cell pellet from 1 L BL21 (DE3) Rosetta2 culture expressing the coding sequence of core protein cloned NdeI/XhoI into expression plasmid pET21b was treated for 1 h on ice with a native lysis buffer (Qproteome Bacterial Protein Prep Kit; Qiagen, Hilden). After a centrifugation step the supernatant was precipitated during 2 h stirring on ice with 0.23 g/ml of solid ammonium sulfate. Following further centrifugation the resulting pellet was resolved in buffer A (100 mM Tris, pH 7.5; 100 mM NaCl; 2 mM DTT) and was subsequently loaded onto a buffer A equilibrated CaptoCore 700 column (GE HealthCare, Frankfurt). The column flow through containing the assembled HBV capsid was dialyzed against buffer N (50 mM NaHCO3 pH 9.6; 5 mM DTT) before urea was added to a final concentration of 3M to dissociate the capsid into core dimers for 1.5 h on ice. The protein solution was then loaded onto a 1 L Sephacryl S300 column. After elution with buffer N core dimer containing fractions were identified by SDS-PAGE and subsequently pooled and dialyzed against 50 mM HEPES pH 7.5; […]. To improve the assembly capacity of the purified core dimers a second round of assembly and disassembly starting with the addition of 5 M NaCl and including the size exclusion chromatography steps described above was performed. From the last chromatography step core dimer containing fractions were pooled and stored in aliquots at concentrations between 1.5 to 2.0 mg/ml at −80° C.
Immediately before labelling the core protein was reduced by adding freshly prepared DTT in a final concentration of 20 mM. After 40 min incubation on ice storage buffer and DTT was removed using a Sephadex G-25 column (GE HealthCare, Frankfurt) and 50 mM HEPES, pH 7.5. For labelling 1.6 mg/ml core protein was incubated at 4° C. and darkness overnight with BODIPY-FL maleimide (Invitrogen, Karlsruhe) in a final concentration of 1 mM. After labelling the free dye was removed by an additional desalting step using a Sephadex G-25 column. Labelled core dimers were stored in aliquots at 4° C. In the dimeric state the fluorescence signal of the labelled core protein is high and is quenched during the assembly of the core dimers to high molecular capsid structures. The screening assay was performed in black 384 well microtiter plates in a total assay volume of 10 μl using 50 mM HEPES pH 7.5 and 1.0 to 2.0 μM labelled core protein. Each screening compound was added in 8 different concentrations using a 0.5 log-unit serial dilution starting at a final concentration of 100 μM, 31.6 μM or 10 μM, In any case the DMSO concentration over the entire microtiter plate was 0.5%. The assembly reaction was started by the injection of NaCl to a final concentration of […] which induces the assembly process to approximately 25% of the maximal quenched signal. 6 min after starting the reaction the fluorescence signal was measured using a Clariostar plate reader (BMG Labtech, Ortenberg) with an excitation of 477 nm and an emission of 525 nm. As 100% and 0% assembly control HEPES buffer containing 2.5 M and 0 M NaCl was used. Experiments were performed thrice in triplicates. EC50 values were calculated by non-linear regression analysis using the Graph Pad Prism 6 software (GraphPad Software, La Jolla, USA).

One may read the CC50 as the concentration at which the toxic effect on the cells reaches its halfway point. A lower CC50 goes with greater toxicity to the cells. The EC50 is the midpoint of the concentration-response curve. As usually defined, the IC50 is the point on the concentration scale where inhibition reaches its midpoint.

T1 sequence (P03146 whole entry, looked up, the tested form may be a part): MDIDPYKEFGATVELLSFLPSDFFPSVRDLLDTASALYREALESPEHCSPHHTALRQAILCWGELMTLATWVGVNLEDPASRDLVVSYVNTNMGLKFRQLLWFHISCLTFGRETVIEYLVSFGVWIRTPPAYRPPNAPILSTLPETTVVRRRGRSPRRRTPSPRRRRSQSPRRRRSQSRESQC

`CN(C(=O)c1n[nH]c2c1CN(C(=O)c1cc3ccccc3[nH]1)CC2)[C@@H]1CCCC[C@H]1O` (racemic) [Example 192, N-[(±)-2-hydroxycyclohexyl]-5-(1H-indole-2-carbonyl)-N-methyl-1H,4H,5H,6H,7H-pyrazolo[4,3-c]pyridine-3-carboxamide] returned a CC50 at 6 days in data set [1] of over 10 µM. In addition, in the data set on HBV, the EC50 was under 1 µM. In addition, the IC50 at HBV core protein fell in the range of 5 to 10 µM.

Take `CN(CCO)C(=O)c1n[nH]c2c1CN(C(=O)c1cc3c(C(F)F)cc(F)cc3[nH]1)CC2` [Example 3, 5-[4-(difluoromethyl)-6-fluoro-1H-indole-2-carbonyl]-N-(2-hydroxyethyl)-N-methyl-1H,4H,5H,6H,7H-pyrazolo[4,3-c]pyridine-3-carboxamide]: the CC50 at 6 days in data set [1] was over 10 µM. The 50% effective concentration (EC50) with HBV is under 1 µM. Also, the concentration for half-maximal inhibition (IC50) at HBV core protein was under 5 µM.

`CN(CCO)C(=O)c1n[nH]c2c1CN(C(=O)c1cc3c(C(F)F)cccc3[nH]1)CC2` [Example 4, 5-[4-(difluoromethyl)-1H-indole-2-carbonyl]-N-(2-hydroxyethyl)-N-methyl-1H,4H,5H,6H,7H-pyrazolo[4,3-c]pyridine-3-carboxamide] gave a CC50 at 6 days in data set [1] of over 10 µM. Also, the concentration for a half-maximal effect (EC50) in the data set on HBV is under 1 µM. For the same molecule, the IC50 on HBV core protein is under 5 µM.

Regarding `CN(CCO)C(=O)c1n[nH]c2c1CN(C(=O)c1cc3c(C(C)(F)F)cccc3[nH]1)CC2` [Example 5, 5-[4-(1,1-difluoroethyl)-1H-indole-2-carbonyl]-N-(2-hydroxyethyl)-N-methyl-1H,4H,5H,6H,7H-pyrazolo[4,3-c]pyridine-3-carboxamide], the CC50 at 6 days in data set [1] was over 32 µM. Besides, the EC50 in the data set with HBV was under 100 µM. The IC50 on HBV core protein is under 5 µM.

With `CN(CCO)C(=O)c1n[nH]c2c1CN(C(=O)c1cc3cc(F)c(Cl)cc3[nH]1)CC2` [Example 6, 5-(6-chloro-5-fluoro-1H-indole-2-carbonyl)-N-(2-hydroxyethyl)-N-methyl-1H,4H,5H,6H,7H-pyrazolo[4,3-c]pyridine-3-carboxamide], in data set [1], the CC50 at 6 days was over 10 µM. The EC50 in the data set on HBV was under 1 µM. In addition, the concentration for half-maximal inhibition (IC50) on HBV core protein was under 5 µM.

`CN(CCO)C(=O)c1n[nH]c2c1CN(C(=O)c1cc3cc(F)c(F)cc3[nH]1)CC2` [Example 7, 5-(5,6-difluoro-1H-indole-2-carbonyl)-N-(2-hydroxyethyl)-N-methyl-1H,4H,5H,6H,7H-pyrazolo[4,3-c]pyridine-3-carboxamide] returned a cytotoxic concentration (CC50) at 6 days in data set [1] of over 10 µM. For the same molecule, in the data set with HBV, the EC50 is under 1 µM. Further, the IC50 on HBV core protein was under 5 µM.

Molecule `CN(CCO)C(=O)c1n[nH]c2c1CN(C(=O)c1cc3c(F)c(F)c(F)cc3[nH]1)CC2` [Example 8, N-(2-hydroxyethyl)-N-methyl-5-(4,5,6-trifluoro-1H-indole-2-carbonyl)-1H,4H,5H,6H,7H-pyrazolo[4,3-c]pyridine-3-carboxamide] displayed a CC50 at 6 days in data set [1] of over 10 µM. In the data set with HBV, the EC50 is under 1 µM. Besides, the IC50 at HBV core protein was under 5 µM.

Consider `CCc1ccc(F)c2[nH]c(C(=O)N3CCc4[nH]nc(C(=O)N(C)CCO)c4C3)cc12` [Example 9, 5-(4-ethyl-7-fluoro-1H-indole-2-carbonyl)-N-(2-hydroxyethyl)-N-methyl-1H,4H,5H,6H,7H-pyrazolo[4,3-c]pyridine-3-carboxamide], for which the CC50 at 6 days in data set [1] was over 10 µM. Also, the EC50 in the data set on HBV was under 1 µM. Besides, the half-inhibitory concentration (IC50) at HBV core protein is under 5 µM.

As to `CCc1cc(F)cc2[nH]c(C(=O)N3CCc4[nH]nc(C(=O)N(C)CCO)c4C3)cc12` [Example 10, 5-(4-ethyl-6-fluoro-1H-indole-2-carbonyl)-N-(2-hydroxyethyl)-N-methyl-1H,4H,5H,6H,7H-pyrazolo[4,3-c]pyridine-3-carboxamide], in data set [1], the half-maximal cytotoxic concentration (CC50) at 6 days is over 10 µM. Moreover, in the data set on HBV, the concentration giving a half-maximal response (EC50) was under 1 µM. The half-inhibitory concentration (IC50) on HBV core protein is under 5 µM.

The molecule `CCc1cc(F)cc2[nH]c(C(=O)N3CCc4n[nH]c(-c5cscn5)c4C3)cc12` [Example 12, 4-ethyl-6-fluoro-2-[3-(1,3-thiazol-4-yl)-2H,4H,5H,6H,7H-pyrazolo[4,3-c]pyridine-5-carbonyl]-1H-indole] came in with a 50% cytotoxic concentration (CC50) at 6 days in data set [1] of over 10 µM. In addition, the EC50 with HBV is under 1 µM. Moreover, the IC50 on HBV core protein is under 5 µM.

`O=C(c1cc2ccc(Br)cc2[nH]1)N1CCc2n[nH]c(-c3cscn3)c2C1` [Example 15, 6-bromo-2-[3-(1,3-thiazol-4-yl)-2H,4H,5H,6H,7H-pyrazolo[4,3-c]pyridine-5-carbonyl]-1H-indole]: the cytotoxic concentration (CC50) at 6 days in data set [1] is over 10 µM. In the data set on HBV, the half-maximal effective concentration (EC50) is under 1 µM. Moreover, the concentration for half-maximal inhibition (IC50) on HBV core protein was 5 to 10 µM.

Turning to `O=C(c1cc2ccc(Cl)cc2[nH]1)N1CCc2n[nH]c(-c3cscn3)c2C1` [Example 16, 6-chloro-2-[3-(1,3-thiazol-4-yl)-2H,4H,5H,6H,7H-pyrazolo[4,3-c]pyridine-5-carbonyl]-1H-indole], in data set [1], the CC50 at 6 days is over 10 µM. The 50% effective concentration (EC50) with HBV is under 1 µM. Also, the IC50 on HBV core protein was under 5 µM.

Turning to `O=C(c1cc2c(F)ccc(F)c2[nH]1)N1CCc2n[nH]c(-c3cscn3)c2C1` [Example 17, 4,7-difluoro-2-[3-(1,3-thiazol-4-yl)-2H,4H,5H,6H,7H-pyrazolo[4,3-c]pyridine-5-carbonyl]-1H-indole], the CC50 at 6 days in data set [1] was over 10 µM. In addition, the concentration for a half-maximal effect (EC50) with HBV is under 1 µM. In addition, the half-inhibitory concentration (IC50) on HBV core protein was under 5 µM.

On to `COC(=O)C1CCN(C(=O)c2n[nH]c3c2CN(C(=O)c2cc4ccccc4[nH]2)CC3)CC1` [Example 132, methyl 1-[5-(1H-indole-2-carbonyl)-1H,4H,5H,6H,7H-pyrazolo[4,3-c]pyridine-3-carbonyl]piperidine-4-carboxylate], for which the cytotoxic concentration (CC50) at 6 days in data set [1] was over 10 µM. For the same molecule, the concentration for half-maximal inhibition (IC50) at HBV core protein is under 5 µM.

As to `CN(C(=O)c1n[nH]c2c1CN(C(=O)c1cc3ccccc3[nH]1)CC2)C(C)(C)CO` [Example 143, N-(1-hydroxy-2-methylpropan-2-yl)-5-(1H-indole-2-carbonyl)-N-methyl-1H,4H,5H,6H,7H-pyrazolo[4,3-c]pyridine-3-carboxamide], the EC50 with HBV fell in the range of 1 to 25 µM. For the same molecule, the IC50 at HBV core protein is 5 to 10 µM.

Consider `O=C(c1cc2c(C(F)F)cc(F)cc2[nH]1)N1CCc2n[nH]c(C3CCC3)c2C1` [Example 400, 2-{3-cyclobutyl-2H,4H,5H,6H,7H-pyrazolo[4,3-c]pyridine-5-carbonyl}-4-(difluoromethyl)-6-fluoro-1H-indole], for which the CC50 at 6 days in data set [1] is over 10 µM. Moreover, the 50% effective concentration (EC50) with HBV is under 1 µM.

Turning to `O=C(c1cc2ccccc2[nH]1)N1CCc2n[nH]c(C(=O)N3CC(F)(F)CC34CC4)c2C1` [Example 401, 2-(3-{6,6-difluoro-4-azaspiro[2.4]heptane-4-carbonyl}-2H,4H,5H,6H,7H-pyrazolo[4,3-c]pyridine-5-carbonyl)-1H-indole], the CC50 at 6 days in data set [1] is over 10 µM. For the same molecule, the EC50 in the data set with HBV is under 1 µM.

For `CN(C(=O)c1[nH]nc2c1CN(C(=O)c1cc3ccccc3[nH]1)CC2)C1(c2ccno2)CC1` [Example 402, 5-(1H-indole-2-carbonyl)-N-methyl-N-[1-(1,2-oxazol-5-yl)cyclopropyl]-2H,4H,5H,6H,7H-pyrazolo[4,3-c]pyridine-3-carboxamide], the half-maximal cytotoxic concentration (CC50) at 6 days in data set [1] was over 10 µM. Further, the EC50 in the data set on HBV is under 1 µM.
